From PubChem BioAssay (NCI) come the findings set out here.

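All cell lines were grown in 96-well plates and treated with compound for 48 hours. GI50: concentration for 50% inhibition of growth. TGI: total growth inhibition.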 Some results are limits rather than exact numbers.

Some test systems named below: 786-0 renal; BT-549 breast; CCRF-CEM leukemia; EKVX NSCLC; HOP-92 NSCLC; HT29 colon; MDA-MB-435; NCI-H460 lung; RXF 393 renal; SF-295 CNS.
Common to all, as to assay: growth of human tumour cells (NCI), 48 h

For `C=C(C=O)C1CC(=O)C(C(=O)OC)[C@@H]2O[C@@](C)(CC2=O)C[C@@H]2OC(=O)[C@]3(O[C@@H]23)[C@@H](C(=O)OC)C1` (stereo not given in full), the GI50 in the assay on 786-0 renal was 19.3 µM; in the assay on BT-549 breast it was 21.7 µM; in the assay on CCRF-CEM leukemia, 5.81 µM; in the assay on EKVX NSCLC, 27.2 µM; in the assay with HOP-92 NSCLC, 16.5 µM; in the assay with HT29 colon, 29 µM. Besides, the GI50 is 14.3 µM with MDA-MB-435, 24.4 µM in the assay with NCI-H460 lung, 9.3 µM in the assay on RXF 393 renal and 11.2 µM in the assay with SF-295 CNS. Further, the TGI in the assay on 786-0 renal is 51 µM; in the assay with BT-549 breast, 55 µM; with CCRF-CEM leukemia it was > 100 µM; in the assay with EKVX NSCLC, 95.1 µM; in the assay with HOP-92 NSCLC it was 37.9 µM; in the assay on HT29 colon, > 100 µM. Besides, the TGI in the assay with MDA-MB-435 was 33 µM; with NCI-H460 lung, 70.8 µM; in the assay with RXF 393 renal it was 33.6 µM; with SF-295 CNS, 28.6 µM.
As to `COc1ccc(-c2oc(=O)ccc2C#Cc2cc(OC)c(OC)c(OC)c2)cc1O`, the GI50 in the assay with 786-0 renal was 24.8 µM; in the assay on BT-549 breast it was 27 µM; with CCRF-CEM leukemia, 2.79 µM; with EKVX NSCLC, 66.7 µM; in the assay with HOP-92 NSCLC, 5.47 µM; in the assay on HT29 colon, 37.9 µM. Also, the GI50 with MDA-MB-435 is 11.5 µM; in the assay on NCI-H460 lung it was 15.7 µM; in the assay with RXF 393 renal, 10.9 µM; with SF-295 CNS, 12.8 µM. The TGI in the assay on 786-0 renal was > 100 µM; in the assay on BT-549 breast it was > 100 µM; in the assay with CCRF-CEM leukemia, > 100 µM; in the assay with EKVX NSCLC, > 100 µM; with HOP-92 NSCLC, 31.2 µM; with HT29 colon, > 100 µM. Further, the TGI with MDA-MB-435 came out at 81.7 µM; in the assay with NCI-H460 lung it was 62.9 µM; with RXF 393 renal, 31.9 µM; in the assay on SF-295 CNS, 75.4 µM.
For `CC(CN=C(CC(=O)c1ccc(Br)cc1)c1ccccc1)N=C(CC(=O)c1ccc(Br)cc1)c1ccccc1` (stereo not given), the GI50 is 4.2 µM with 786-0 renal; 42.1 µM in the assay with BT-549 breast; 20.1 µM with CCRF-CEM leukemia; 21 µM with EKVX NSCLC; 11.5 µM in the assay on HOP-92 NSCLC; 7.7 µM in the assay on HT29 colon. Further, the GI50 in the assay with MDA-MB-435 was 41.8 µM; in the assay on NCI-H460 lung, 5.38 µM; with RXF 393 renal, 5.59 µM; in the assay on SF-295 CNS, 29.2 µM. Besides, the TGI is > 100 µM in the assay on 786-0 renal; > 100 µM in the assay with BT-549 breast; > 100 µM in the assay on CCRF-CEM leukemia; > 100 µM with EKVX NSCLC; 78.8 µM in the assay with HOP-92 NSCLC; > 100 µM with HT29 colon. Besides, the TGI in the assay on MDA-MB-435, with NCI-H460 lung, in the assay on RXF 393 renal and in the assay on SF-295 CNS was > 100 µM each time.
